# Numbers after ± are expanded uncertainties.
# Assays:
# [1] = DSC
# [2] = Molar enthalpy of transition or fusion; settings: Crystal 2; DSC
SMILES,Triple point temperature ([1]; Crystal),Triple point temperature ([1]; Crystal 1),Triple point temperature ([1]; Crystal 2),Molar enthalpy of transition or fusion [2]
CCCC[N+](CCCC)(CCCC)CCCC.O=S(=O)([N-]S(=O)(=O)C(F)(F)F)C(F)(F)F [tetrabutylammonium bis[(trifluoromethyl)sulfonyl]imide],365 ± 4 K,–,–,–
CCCCCCCCCCCCCCCC[N+](C)(C)C.O=S(=O)([N-]S(=O)(=O)C(F)(F)F)C(F)(F)F,–,335 ± 4 K,319 ± 4 K,7.03 ± 0.717 kcal/mol
O=S(=O)([N-]S(=O)(=O)C(F)(F)F)C(F)(F)F.[Li+] [lithium bis((trifluoromethyl)sulfonyl)amide],–,508 ± 4 K,422 ± 4 K,2.84 ± 0.287 kcal/mol
CC[N+](C)(C)C.O=S(=O)([N-]S(=O)(=O)C(F)(F)F)C(F)(F)F [ethyltrimethylammonium bis(trifluoromethylsulfonyl)imide],383 ± 4 K,–,–,–
